Data from patent US12637472B2, “Benzimidazole heteroatom-containing spiro compound and medicinal use thereof” (Changzhi University, priority 2023, dated 2026).
Like-named read-outs stand apart in the source and are kept apart here.

What was measured:
Assay type in all cases: cell-based
[1] = tested on: human gastric adenocarcinoma cells AGS; assay: MTT in vitro cell proliferation inhibition experiment, AGS; details: MTT method, 48 h contact between compound and cell, read-out: Antiproliferative activity (IC50, μM) AGS
Description: (§1) Human liver tumor cells HepG2, human colon cancer cells HCT116, and human gastric adenocarcinoma cells AGS were purchased from the Institute of Basic Medical Sciences, Chinese Academy of Medical Sciences. The cells each were preserved and passaged in the laboratory of the present disclosure according to respective cultivation data. Each cell line was routinely inoculated in a 50 mL cell culture flask, and cultivated with a 10% fetal bovine serum-containing DMEM/IRP-1640 medium at 37° C., 5% CO2, and 100% humidity, where the medium was changed daily. When growing to a confluency of 80% to 90%, cells were digested with a mixture of trypsin and EDTA and passaged according to 1:3.
(§2) An in vitro cell activity and proliferation inhibition experiment was conducted by an MTT method to investigate an impact of a target compound on a survival activity of each cell. Cells at a logarithmic growth phase were inoculated at 5×10^3 cells (100 μL)/well in a 96-well culture plate and cultivated for 24 h, and then compound solutions with different concentrations prepared in advance were added (100 μL) to the plate. At least 3 replicate wells were set for each concentration. A solvent control group without a compound and a blank control group without a cell were set. Edge wells each were filled with 200 μL of sterilized water. […] A liquid in each well was completely removed carefully, 150 μL of DMSO was added to each well, the plate was gently shaken on a microshaker for 10 min to make a purple crystal fully dissolved, and then an absorbance value was determined at 570 nm by a microplate reader. With a cell viability of the solvent control group without a compound as 100%, a cell survival rate was calculated as follows: a cell survival rate=(an absorbance value of a compound group−an absorbance value of the blank control group)/(an absorbance value of the control group−an absorbance value of the blank control group)×100%. A half-maximal inhibitory concentration (IC50) of a compound for a cell was calculated by the Graphpad Prism 5 software.

[2] = tested on: Human liver tumor cells HepG2; assay: MTT in vitro cell proliferation inhibition experiment, HepG2; details: MTT method, 48 h contact between compound and cell, read-out: Antiproliferative activity (IC50, μM) HepG2
Description: as §1, §2

[3] = tested on: human colon cancer cells HCT116; assay: MTT in vitro cell proliferation inhibition experiment, HCT116; details: 48 h contact between compound and cell, read-out: Antiproliferative activity (IC50, μM) HCT116
Description: as §1, §2

[4] = Homo sapiens, HCT-116, MTT method

SMILES: O=C(c1nc2ccccc2[nH]1)C1C(c2cccc(Br)c2)C2CCCN2C12C(=O)c1ccccc1C2=O (stereo not drawn) [Compound 6, 2-(1H-benzimidazol-2-carbonyl)-1-3-bromophenyl-1,2,5,6,7,7a-hexahydrospiroinden-2,3-pyrrolizine-1,3-dione]
- IC50 ([1]; Homo sapiens): 4 µM
- IC50 ([2]; Homo sapiens): 11.7 µM
- IC50 [3, 4]: 6.64 µM

SMILES: O=C(c1nc2ccccc2[nH]1)C1C(c2ccc(Cl)cc2)C2CCCN2C12C(=O)c1ccccc1C2=O (stereo not drawn) [Compound 3, 2-(1H-benzimidazol-2-carbonyl)-1-4-chlorophenyl-1,2,5,6,7,7a-hexahydrospiroinden-2,3-pyrrolizine-1,3-dione]
- IC50 ([1]; Homo sapiens): 30 µM
- IC50 ([2]; Homo sapiens): > 100 µM
- IC50 [3, 4]: 26.2 µM

SMILES: CSCCC1NC2(C(=O)c3ccccc3C2=O)C(C(=O)c2nc3ccccc3[nH]2)C1c1ccc(C)cc1 (stereo not drawn) [Compound 36, 3-(1H-benzimidazol-2-carbonyl)-5-(2-methylthio)ethyl-4-p-tolylspiro[inden-2,2′-pyrrolidine]-1,3-dione]
- IC50 ([1]; Homo sapiens): 9.78 µM
- IC50 ([2]; Homo sapiens): 13.5 µM
- IC50 [3, 4]: 15.5 µM

SMILES: CCOc1ccc(C2C(C(C)CC)NC3(C(=O)c4ccccc4C3=O)C2C(=O)c2nc3ccccc3[nH]2)cc1 (stereo not drawn) [Compound 23, 3-(1H-benzimidazol-2-carbonyl)-5-sec-butyl-4-(4-ethoxyphenyl)spiro[inden-2,2′-pyrrolidine]-1,3-dione]
- IC50 ([1]; Homo sapiens): 45.8 µM
- IC50 ([2]; Homo sapiens): 8.78 µM
- IC50 [3, 4]: 9.67 µM

SMILES: N.N.[Cl][Pt][Cl] [Cisplatin, reference compound]
- IC50 [1]: 46 µM
- IC50 [2]: 43.2 µM
- IC50 ([3]; MTT method): 39.1 µM

SMILES: O=C(c1nc2ccccc2[nH]1)C1C(c2cccc(Br)c2)C(c2c[nH]c3ccccc23)NC12C(=O)c1ccccc1C2=O (stereo not drawn) [Compound 46, 3-(1H-benzimidazol-2-carbonyl)-4-(3-bromophenyl)-5-(1H-indol-3-yl)spiro[inden-2,2′-pyrrolidine]-1,3-dione]
- IC50 ([1]; Homo sapiens): 21.4 µM
- IC50 ([2]; Homo sapiens): 12.2 µM
- IC50 [3, 4]: 18.4 µM

SMILES: CCOc1ccc(C2C(CC(C)C)NC3(C(=O)c4ccccc4C3=O)C2C(=O)c2nc3ccccc3[nH]2)cc1OCC (stereo not drawn) [Compound 13]
- IC50 ([1]; Homo sapiens): > 100 µM
- IC50 ([2]; Homo sapiens): > 100 µM
- IC50 [3, 4]: > 100 µM

SMILES: O=C(c1nc2ccccc2[nH]1)C1C(c2ccc(Br)cc2)C2CCCN2C12C(=O)c1ccccc1C2=O (stereo not drawn) [Compound 8, 2-(1H-benzimidazol-2-carbonyl)-1-4-bromophenyl-1,2,5,6,7,7a-hexahydrospiroinden-2,3-pyrrolizine-1,3-dione]
- IC50 ([1]; Homo sapiens): 25.7 µM
- IC50 ([2]; Homo sapiens): > 100 µM
- IC50 [3, 4]: 17.4 µM

SMILES: CC(C)C1NC2(C(=O)c3ccccc3C2=O)C(C(=O)c2nc3ccccc3[nH]2)C1c1ccc(Br)cc1 (stereo not drawn) [Compound 32, 3-(1H-benzimidazol-2-carbonyl)-4-(4-bromophenyl)-5-isopropylspiro[inden-2,2′-pyrrolidine]-1,3-dione]
- IC50 ([1]; Homo sapiens): > 100 µM
- IC50 ([2]; Homo sapiens): 66.7 µM
- IC50 [3, 4]: > 100 µM

SMILES: CCOc1ccc(C2C(CCSC)NC3(C(=O)c4ccccc4C3=O)C2C(=O)c2nc3ccccc3[nH]2)cc1OCC (stereo not drawn) [Compound 37, 3-(1H-benzimidazol-2-carbonyl)-3,4-diethoxyphenyl-5-(2-methylthio)ethylspiro[inden-2,2′-pyrrolidine]-1,3-dione]
- IC50 ([1]; Homo sapiens): 78.6 µM
- IC50 ([2]; Homo sapiens): > 100 µM
- IC50 [3, 4]: > 100 µM

SMILES: CC(C)CC1NC2(C(=O)c3ccccc3C2=O)C(C(=O)c2nc3ccccc3[nH]2)C1C1CCCCC1 (stereo not drawn) [Compound 9, 3-(1H-benzimidazol-2-carbonyl)-4-cyclohexyl-5-isobutylspiro[inden-2,2′-pyrrolidine]-1,3-dione]
- IC50 ([1]; Homo sapiens): 69 µM
- IC50 ([2]; Homo sapiens): > 100 µM
- IC50 [3, 4]: 20.3 µM

SMILES: CSCCC1NC2(C(=O)c3ccccc3C2=O)C(C(=O)c2nc3ccccc3[nH]2)C1C1CCCCC1 (stereo not drawn) [Compound 33, 3-(1H-benzimidazol-2-carbonyl)-4-cyclohexyl-5-(methylthio)ethylspiro[inden-2,2′-pyrrolidine]-1,3-dione]
- IC50 ([1]; Homo sapiens): 9.77 µM
- IC50 ([2]; Homo sapiens): 12.5 µM
- IC50 [3, 4]: 15.5 µM
